Data: US6342509B1, “Piperidine quaternary salts- CCR- 3 receptor antagonists” (Syntex (U.S.A.) LLC, priority 1998, dated 2002)

Key:
CCR-3 receptor = target: T1, CCR-3 receptor (Homo sapiens, UniProt P51677); test: CCR-3 Receptor Binding Assay in vitro (inhibition of 125I eotaxin binding to CCR-3 L1.2 transfectant cells); settings: CCR-3 L1.2 transfected cells, 1 h at room temperature, read-out: IC50 (concentration of test compound required to reduce 125I-eotaxin binding to the CCR-3 L1.2 transfected cells by 50%)
T1 construct: host or cells: L1.2 (murine pre-B lymphoma line) CCR-3 transfectant cells
T1 sequence (P51677 1-355): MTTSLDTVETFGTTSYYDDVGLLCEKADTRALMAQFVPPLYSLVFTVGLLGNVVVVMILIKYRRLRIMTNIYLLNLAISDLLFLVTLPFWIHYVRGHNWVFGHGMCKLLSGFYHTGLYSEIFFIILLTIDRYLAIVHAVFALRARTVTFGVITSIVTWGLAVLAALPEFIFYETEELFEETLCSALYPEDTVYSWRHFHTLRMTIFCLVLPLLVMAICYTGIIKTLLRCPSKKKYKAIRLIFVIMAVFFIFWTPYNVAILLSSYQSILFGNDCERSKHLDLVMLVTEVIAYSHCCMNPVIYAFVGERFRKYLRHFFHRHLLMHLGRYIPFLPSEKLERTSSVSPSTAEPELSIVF
Protocol: The CCR-3 antagonistic activity of the compounds of the invention was determined by their ability to inhibit the binding of ^125I eotaxin to CCR-3 L1.2 transfectant cells obtained from leukoSite (Cambridge, Mass.).
The assay was performed in Costar 96-well polypropylene round bottom plates. Test compounds were dissolved in DMSO and then diluted with binding buffer (50 mM HEPES, 1 mM CaCl2, 5 mM MgCl2, 0.5% bovine serum albumin, 0.02% sodium azide, pH 7.24) such that the final DMSO concentration was 2%. 25 μl of the test solution or only buffer with DMSO (control samples) was added to each well, followed by the addition of 25 μl of ^125I-eotaxin ([…]) (NEX314, New England Nuclear, Boston, Mass.) and […] of the CCR-3 L1.2 transfected cells in 25 μl binding buffer. The final reaction volume was 75 μl.
After incubating the reaction mixture for 1 h at room temperature, the reaction was terminated by filtering the reaction mixture through polyethylenimine treated Packard Unifilter GF/C filter plate (Packard, Chicago, Ill.). The filters were washed four times with ice cold wash buffer containing 10 mm HEPES and 0.5M sodium chloride (pH 7.2) and dried at 65° C. for approximately 10 min. 25 μl/well of Microscint-20™ scintillation fluid (Packard) was added and the radioactivity retained on the filters was determined by using the Packard TopCount™.
The IC50 value (concentration of test compound required to reduce ^125I-eotaxin binding to the CCR-3 L 1.2 transfected cells by 50%) for representative compounds of the invention was: […]

Compound | IC50 (CCR-3 receptor) [nM] | melting point [°C]
COc1cc(NC(=O)NC(C[N+]2(C)CCC(Cc3ccc(Cl)c(Cl)c3)CC2)C(C)C)cc(OC)c1OC.[Cl-] (centres unmarked) |  | 123.7 to 138
COc1cc(NC(=O)NCC[N+]2(C)CCC(Cc3ccc(Cl)c(Cl)c3)CC2)cc(OC)c1OC.[I-] (centres unmarked) [Cpd 19, 4-(3,4-dichlorobenzyl)-1-methyl-1-{2-[(3,4,5-trimethoxyphenyl)ureido]ethyl}piperidinium iodide] |  | 102 to 108

Results, then the compound that gave them:

IC50 (CCR-3 receptor) [nM] | melting point [°C] | Compound
210 |  | CC[N+]1(C[C@H](NC(=O)Nc2cc(OC)c(OC)c(OC)c2)C(C)C)CCC(Cc2ccc(Cl)c(Cl)c2)CC1 (some centres unmarked) [Cpd 1, 4-(3,4-Dichlorobenzyl)-1-ethyl-1-{3-methyl-2-[3-(3,4,5-trimethoxyphenyl)-ureido]butyl]piperidinium iodide]
198 |  | CCc1ccccc1NC(=O)N[C@@H](C[N+]1(CC)CCC(Cc2ccc(Cl)c(Cl)c2)CC1)C(C)(C)C (some centres unmarked) [Cpd 12]
2320 |  | COc1cc(NC(=O)NC(C[N+]2(C)CCC(Cc3ccc(Cl)c(Cl)c3)CC2)C(C)C)cc(OC)c1OC (centres unmarked) [Cpd 14, 4-(3,4-dichlorobenzyl)-1-methyl-1-{3-methyl-2-[3-(3,4,5-trimethoxyphenyl)ureido]butyl}piperidinium iodide]
